Experimental data from article PMC9995496, “A screen for MeCP2-TBL1 interaction inhibitors using a luminescence-based assay” (Scientific Reports, 2023).
Counter-ions that a name gives are not always drawn. Like-named read-outs stand apart in the source and are kept apart here. Peptide text beside a SMILES is read from it. * marks the point of attachment. Cbz = O=C(OCc1ccccc1)*

Test system: PRKACA-PRKAR2A interaction (SmBiT-PRKACA / LgBiT-PRKAR2A), protein kinase A
Design: NanoLuc complementation counter-screen in cell extract, PRKACA with PRKAR2A, loss of luminescence, detects NanoLuc interference
Conditions: counter-screen for NanoLuc interference, 0.5 h, 20 µM, inhibitor

CC1(C)O[C@@H]2[C@@H](CO[C@@]3(COS(N)(=O)=O)OC(C)(C)O[C@@H]23)O1 [UM0141808:01, Topiramate]
Inh (PKA): 0.4952%

C=CC(=O)N1CCC[C@@H](n2nc(-c3ccc(Oc4ccccc4)cc3)c3c(N)ncnc32)C1 [UM0141493:01, PCI-32765 (Ibrutinib)]
Inh (PKA): 23.88%

CC[C@H]1OC(=O)[C@H](C)[C@@H](O[C@H]2C[C@@](C)(OC)[C@@H](O)[C@H](C)O2)[C@H](C)[C@@H](O[C@@H]2O[C@H](C)C[C@H](N(C)C)[C@H]2O)[C@](C)(OC)C[C@@H](C)C(=O)[C@H](C)[C@@H](O)[C@]1(C)O [UM0121462:03, Clarithromycin]
Inh (PKA): 0.9252%

CCCCN1CCCC[C@H]1C(=O)Nc1c(C)cccc1C [UM0142248:02, Levobupivacaine HCl]
Inh (PKA): 0.7845%

Cc1nc(C(=O)NCC(=O)O)c(O)c2ccc(Oc3ccccc3)cc12 [UM0141752:01, FG-4592 (ASP1517)]
Inh (PKA): 9.511%

CCOC(=O)[C@@H](N)CCC(=O)N[C@@H](CSCc1ccccc1)C(=O)N[C@@H](C(=O)OCC)c1ccccc1 [UM0142188:01, Ezatiostat hydrochloride]
Inh (PKA) (Inh (PKA)): 1.044%

CCCCCN(C)CCC(O)(P(=O)(O)O)P(=O)(O)O [UM0142363:01, Ibandronate sodium]
Inh (PKA): 1.018%

O=c1cc(N2CCOCC2)oc2c(-c3cccc4c3sc3ccccc34)cccc12 [UM0135467:02, NU7441 (KU-57788)]
Inh (PKA): 24.55%

CN(c1ncccc1CNc1nc(Nc2ccc3c(c2)CC(=O)N3)ncc1C(F)(F)F)S(C)(=O)=O [UM0141980:01, PF-562271]
Inh (PKA) (Inh (PKA)): 55.16%

Nc1nc(N)c2nc(-c3cccc(O)c3)c(-c3cccc(O)c3)nc2n1 [UM0141482:01, TG100-115]
Inh (PKA): 37.25%

COc1ccccc1S(=O)(=O)Nc1ccc2c(c1)CN(C)C(=O)N2 [UM0141750:01, PFI-1 (PF-6405761)]
Inh (PKA): 3.719%

COC(=O)Nc1nc2cc(C(=O)c3cccs3)ccc2[nH]1 [UM0118368:03, Nocodazole]
Inh (PKA): 9.707%

O=[N+]([O-])c1ccc2c(c1)S(=O)(=O)C=C2 [UM0141450:01, Stattic]
Inh (PKA): 9.361%

Nc1nc2[nH]cc(CCc3ccc(C(=O)N[C@@H](CCC(=O)O)C(=O)O)cc3)c2c(=O)[nH]1 [UM0141598:01, Pemetrexed disodium hemipenta hydrate]
Inh (PKA) (Inh (PKA)): 0.5825%

CC(=O)/N=c1/sc(S(N)(=O)=O)nn1C [UM0132958:02, Methazolamide]
Inh (PKA): 0.8823%

C=CC(=O)Nc1cccc(Nc2nc(Nc3ccc(OCCOC)cc3)ncc2F)c1 [UM0141522:01, AVL-292]
Inh (PKA): 22.87%

O=C(O)/C=C/c1ccc(Cn2ccnc2)cc1 [UM0141799:01, Ozagrel]
Inh (PKA) (Inh (PKA)): 1.747%

COc1ccc(S(=O)(=O)N(CCO)c2ccccc2CN(C)C/C=C/c2ccc(Cl)cc2)cc1 [UM0142198:01, KN-93 hydrochloride]
Inh (PKA) (Inh (PKA)): 38.66%

Cc1ccc(Nc2nccc(N(C)c3ccc4c(C)n(C)nc4c3)n2)cc1S(N)(=O)=O [UM0142006:01, Pazopanib Hydrochloride]
Inh (PKA) (Inh (PKA)): 14.36%

CN1CCC(Nc2nc(Nc3ccc(Oc4ccccc4)cc3)c3c(=O)[nH]cc(Br)c3n2)CC1 [UM0142146:01, G-749]
Inh (PKA): 37.05%

COC(=O)CC[C@H](NC(=O)[C@H](CC(=O)OC)NC(=O)OCc1ccccc1)C(=O)N[C@H](C(=O)N[C@@H](CC(=O)OC)C(=O)CF)C(C)C [UM0141427:01, Z-DEVD-FMK]
Inh (PKA): 1.254%

CN(C)CC[C@H](CSc1ccccc1)Nc1ccc(S(=O)(=O)NC(=O)c2ccc(N3CCN(Cc4ccccc4-c4ccc(Cl)cc4)CC3)cc2)cc1[N+](=O)[O-] [UM0136062:02, ABT-737]
Inh (PKA): 17.72%

CNCC(O)c1ccc(O)cc1 (stereo not shown) [UM0142702:01, Synephrine]
Inh (PKA): 1.654%

Cc1cc(Nc2ccc(NC(=O)c3ccc(Nc4ccnc5ccccc45)cc3)cc2)nc(N)n1 [UM0142330:01, SGI-1027]
Inh (PKA): 9.462%

O=S(=O)(N=Cc1c(O)ccc2ccccc12)c1cccs1 [UM0142640:01, STF 083010]
Inh (PKA): 10.66%

CC(C)(C)c1cc(C=C(C#N)C#N)cc(C(C)(C)C)c1O [UM0120315:03, Tyrphostin 9]
Inh (PKA): 80.34%

O=C(Nc1ccc(-c2ccnc(Nc3ccc(N4CCOCC4)cc3)n2)cc1)C1CCCN1 (stereo not shown) [UM0141648:01, XL019]
Inh (PKA): -3.897%

Cc1cc(/C=C/C#N)cc(C)c1Nc1ccnc(Nc2ccc(C#N)cc2)n1 [UM0141618:01, Rilpivirine]
Inh (PKA): 30.56%

CC(C)c1cc(C(C)C)c(CC(=O)NS(=O)(=O)Oc2c(C(C)C)cccc2C(C)C)c(C(C)C)c1 [UM0141778:01, Avasimibe]
Inh (PKA): 69.24%

CC[C@@H](N)CNc1ccnc(-c2cc(-c3cnn(C)c3)ccc2O)n1 [UM0142114:01, CRT 0066101]
Inh (PKA): 18.6%

C#C[C@]1(O)CC[C@H]2[C@@H]3CCC4=CC(=O)CC[C@@H]4[C@H]3C(=C)C[C@@]21CC [UM0142516:01, Etonogestrel]
Inh (PKA): 8.15%

Cc1ccc(NC(=O)c2cccc(C(C)(C)C#N)c2)cc1Nc1ccc2ncn(C)c(=O)c2c1 [UM0127965:02, AZ 628]
Inh (PKA): 24.58%

COc1cc2c(NC3CCN(C(C)C)CC3)nc(C3CCCCC3)nc2cc1OCCCN1CCCC1 [UM0128581:02, UNC0638]
Inh (PKA): 0.9337%

C=C1CC[C@H](O)C/C1=C/C=C1\CCC[C@]2(C)[C@@H]([C@H](C)CCCC(C)(C)O)CC[C@@H]12 [UM0142419:01, Calcifediol]
Inh (PKA): 12.98%

CC(=O)Oc1ccccc1C(=O)O [UM0119503:03, Aspirin (Acetylsalicylic acid)]
Inh (PKA): 1.275%

CC(C)=CC[C@@H](O)C1=CC(=O)c2c(O)ccc(O)c2C1=O [UM0133665:02, Shikonin]
Inh (PKA): 46.09%

CC(C)[C@H]1C(=O)N[C@@H](CCCNC(=N)N)C(=O)NCC(=O)N[C@@H](CC(=O)O)C(=O)N[C@H](Cc2ccccc2)C(=O)N1C [UM0142112:01, Cilengitide]
Inh (PKA): 0.5722%

NC(=O)Nc1sc(-c2ccc(F)cc2)cc1C(N)=O [UM0127870:03, TPCA-1]
Inh (PKA): 19.86%

O=C(Nc1cccnc1)c1cc(-c2ccnc(F)c2)ccc1OCc1ccccc1 [UM0142641:01, GSK2578215A]
Inh (PKA): 10.96%

Cc1cc(C)c(Nc2ccnc(Nc3ccc(C#N)cc3)n2)c(C)c1 [UM0142086:01, Dapivirine (TMC120)]
Inh (PKA): 39.35%

CN(C)CCCN1c2ccccc2CCc2ccccc21 [UM0118324:03, Imipramine (hydrochloride)]
Inh (PKA): 3.952%

Cc1cc(C)c(S(=O)(=O)n2cc(C)cc2C)c(C)c1 [UM0142646:01, HJC 0350]
Inh (PKA): 24.94%

Cc1cc(C#N)cc(C)c1Oc1nc(Nc2ccc(C#N)cc2)nc(N)c1Br [UM0142453:01, Etravirine (TMC125)]
Inh (PKA): 89.04%

CC1(C)CCC(CN2CCN(c3ccc(C(=O)NS(=O)(=O)c4ccc(NCC5CCOCC5)c([N+](=O)[O-])c4)c(Oc4cnc5[nH]ccc5c4)c3)CC2)=C(c2ccc(Cl)cc2)C1 [UM0135497:03, ABT-199]
Inh (PKA): 28.89%

Nc1ccc(S(=O)(=O)Nc2ccnn2-c2ccccc2)cc1 [UM0118414:03, Sulfaphenazole]
Inh (PKA): 2.527%

CC(C)C[C@@H](C=O)NC(=O)[C@H](CC(C)C)NC(=O)[C@H](CC(C)C)NC(=O)OCc1ccccc1 [UM0141471:01, MG-132] (Cbz-Leu-Leu-Leu-aldehyde)
Inh (PKA): 6.639%

Cn1c(N2CCCCS2(=O)=O)nc(C(=O)NCc2ccc(F)cc2)c(O)c1=O [UM0141690:01, BMS-707035]
Inh (PKA): 4.266%

CC(C)(O)c1coc(S(=O)(=O)NC(=O)Nc2c3c(cc4c2CCC4)CCC3)c1 [UM0142816:01, MCC950 sodium]
Inh (PKA): -1.906%

COC(=O)[C@]12CCC(C)(C)C[C@H]1[C@H]1C(=O)C=C3[C@@]4(C)C=C(C#N)C(=O)C(C)(C)[C@@H]4CC[C@@]3(C)[C@]1(C)CC2 [UM0141526:01, Bardoxolone methyl]
Inh (PKA): 12.18%

CCn1c(=O)c(-c2ccc(-c3cncs3)cc2Cl)cc2cnc(Nc3ccc(N4CCN(C)CC4)cc3)nc21 [UM0142182:01, FRAX597]
Inh (PKA): 16.18%

CC(C(=O)O)c1ccc2c(c1)CC(=O)c1ccccc1S2 (stereo not shown) [UM0142265:01, Zaltoprofen]
Inh (PKA): 16.72%

CCN[C@H]1CN(CCCOC)S(=O)(=O)c2sc(S(N)(=O)=O)cc21 [UM0118906:03, Brinzolamide]
Inh (PKA): -0.219%

CCOc1cc(N)c(Cl)cc1C(=O)NCC1CN(Cc2ccc(F)cc2)CCO1 (stereo not shown) [UM0141391:01, Mosapride Citrate]
Inh (PKA): 13.81%

CCc1cncnc1N1CCN(Cc2nc3ccc(C(F)(F)F)cc3[nH]2)CC1 [UM0142456:01, PF-4708671]
Inh (PKA): 34.33%

CN(NC(=O)CC(=O)NN(C)C(=S)c1ccccc1)C(=S)c1ccccc1 [UM0141826:01, Elesclomol (STA-4783)]
Inh (PKA): 1.652%

O=S(=O)(O)c1ccc2cc(N=Nc3cc(S(=O)(=O)O)c4cccnc4c3O)ccc2c1 [UM0141859:01, NSC 87877]
Inh (PKA): 48.34%

O=C(Nc1cccc(C(F)(F)F)c1)Nc1cc(S(=O)(=O)NC2CC2)ccc1-c1ccsc1 [UM0141513:01, AGI-6780]
Inh (PKA): 24.76%

CS(=O)(=O)c1ccc(-c2cnc(N)c(C(=O)Nc3ccccc3)n2)cc1 [UM0135461:02, VE-821]
Inh (PKA): 11.31%
